# Test results: patent US8946215B2, “Hydroxy-substituted imidazo[1,2-a]pyridinecarboxamides and their use” (Bayer Pharma Aktiengesellschaft, priority 2012, dated 2015)
# Counter-ions that a name gives are not always drawn.
# Target: T1, recombinant guanylate cyclase reporter cell line (Rattus norvegicus, UniProt P19686+P20595)
# T1 construct: expressed in transfected cells
# T1 sequence (P20595 1-619): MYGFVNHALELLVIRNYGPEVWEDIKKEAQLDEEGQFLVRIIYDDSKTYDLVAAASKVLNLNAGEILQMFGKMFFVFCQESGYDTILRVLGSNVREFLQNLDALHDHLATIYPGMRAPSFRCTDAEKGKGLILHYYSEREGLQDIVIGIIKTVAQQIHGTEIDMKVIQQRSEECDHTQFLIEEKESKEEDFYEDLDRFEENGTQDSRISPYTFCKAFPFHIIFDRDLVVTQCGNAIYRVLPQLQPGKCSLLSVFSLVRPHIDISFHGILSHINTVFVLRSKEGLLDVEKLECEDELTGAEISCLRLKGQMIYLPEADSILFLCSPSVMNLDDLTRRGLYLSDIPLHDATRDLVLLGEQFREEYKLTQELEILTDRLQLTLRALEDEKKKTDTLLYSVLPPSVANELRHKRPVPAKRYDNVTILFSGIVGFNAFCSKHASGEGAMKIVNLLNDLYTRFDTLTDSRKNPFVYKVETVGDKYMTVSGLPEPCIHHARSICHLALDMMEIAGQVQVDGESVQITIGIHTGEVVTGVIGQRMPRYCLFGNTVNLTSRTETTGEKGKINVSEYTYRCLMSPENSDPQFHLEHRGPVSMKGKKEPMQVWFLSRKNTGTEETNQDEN
# T1 sequence (P19686 1-690): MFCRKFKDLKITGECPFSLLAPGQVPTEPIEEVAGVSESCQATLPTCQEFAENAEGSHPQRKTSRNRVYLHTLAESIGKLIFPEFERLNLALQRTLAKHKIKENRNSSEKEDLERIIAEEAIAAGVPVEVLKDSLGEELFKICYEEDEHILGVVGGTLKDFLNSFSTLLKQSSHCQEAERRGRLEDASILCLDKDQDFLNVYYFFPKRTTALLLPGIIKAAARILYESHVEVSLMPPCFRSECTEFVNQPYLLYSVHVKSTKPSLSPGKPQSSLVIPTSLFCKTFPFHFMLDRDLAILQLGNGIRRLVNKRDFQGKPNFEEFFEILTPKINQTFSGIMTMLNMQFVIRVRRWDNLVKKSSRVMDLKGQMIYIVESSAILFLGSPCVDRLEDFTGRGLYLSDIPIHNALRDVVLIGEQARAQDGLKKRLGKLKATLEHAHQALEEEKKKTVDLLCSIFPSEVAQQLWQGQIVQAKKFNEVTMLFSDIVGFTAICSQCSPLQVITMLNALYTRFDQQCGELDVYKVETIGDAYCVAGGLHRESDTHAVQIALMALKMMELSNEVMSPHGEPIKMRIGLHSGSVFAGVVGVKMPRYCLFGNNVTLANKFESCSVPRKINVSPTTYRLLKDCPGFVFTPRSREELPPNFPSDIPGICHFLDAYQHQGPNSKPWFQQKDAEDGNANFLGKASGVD
# Assay: Action on recombinant guanylate cyclase reporter cell line
# Format: cell-based
# Conditions: in some cases mean values obtained from individual determinations
# How it was run: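 Cell-based reporter assay with recombinant guanylate cyclase expressed in a reporter cell line, per a published method. Activity reported as minimal effective concentration (MEC), in some cases as the mean of individual determinations.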
row,Structure (SMILES),MEC (minimal effective concentration) [µM]
1,"CSCC[C@@H](CO)NC(=O)c1c(C)nc2c(OCC3CCCCC3)cccn12 [Example 90, 8-(cyclohexylmethoxy)-N-[(2S)-1-hydroxy-4-(methylsulphanyl)butan-2-yl]-2-methylimidazo[1,2-a]pyridine-3-carboxamide]",1.0
2,"CC[C@H](C)[C@@H](CO)NC(=O)c1c(C)nc2c(OCC3CCCCC3)cccn12 [Example 91, 8-(cyclohexylmethoxy)-N-[(2S,3S)-1-hydroxy-3-methylpentan-2-yl]-2-methylimidazo[1,2-a]pyridine-3-carboxamide]",1.0
3,"Cc1nc2c(OCC3CCCCC3)cccn2c1C(=O)NC1(CO)CCCC1 [Example 92, 8-(cyclohexylmethoxy)-N-[1-(hydroxymethyl)cyclopentyl]-2-methylimidazo[1,2-a]pyridine-3-carboxamide]",1.0
4,"Cc1nc2c(OCC3CCCCC3)cccn2c1C(=O)N[C@H](CO)C(C)C [Example 93, 8-(cyclohexylmethoxy)-N-[(2S)-1-hydroxy-3-methylbutan-2-yl]-2-methylimidazo[1,2-a]pyridine-3-carboxamide]",1.0
5,"Cc1nc2c(OCC3CCCCC3)cccn2c1C(=O)NC(CO)COC(C)(C)C (centres unmarked) [Example 94, N-(1-tert-butoxy-3-hydroxypropan-2-yl)-8-(cyclohexylmethoxy)-2-methylimidazo[1,2-a]-pyridine-3-carboxamide]",3.0
6,"Cc1nc2c(OCC3CCCCC3)cccn2c1C(=O)N[C@H](CO)CC(C)C [Example 95, 8-(cyclohexylmethoxy)-N-[(2S)-1-hydroxy-4-methylpentan-2-yl]-2-methylimidazo[1,2-a]pyridine-3-carboxamide]",3.0
7,"CCC(C)[C@H](CO)NC(=O)c1c(C)nc2c(OCC3CCCCC3)cccn12 (stereo partly drawn) [Example 96, 8-(cyclohexylmethoxy)-N-[(2R)-1-hydroxy-3-methylpentan-2-yl]-2-methylimidazo[1,2-a]pyridine-3-carboxamide]",3.0
8,"Cc1nc2c(OCC3CCC3)cccn2c1C(=O)NCCC1(O)CCCC1 [Example 97, 8-(cyclobutylmethoxy)-N-[2-(1-hydroxycyclopentyl)ethyl]-2-methylimidazo[1,2-a]pyridine-3-carboxamide]",1.0
9,"Cc1nc2c(OCC3CCC3)cccn2c1C(=O)NCCOCCO [Example 98, 8-(cyclobutylmethoxy)-N-[2-(2-hydroxyethoxy)ethyl]-2-methylimidazo[1,2-a]pyridine-3-carboxamide]",3.0
10,"Cc1nc2c(OCC3CCC3)cccn2c1C(=O)NCCC1(O)CCCCC1 [Example 99, 8-(cyclobutylmethoxy)-N-[2-(1-hydroxycyclohexyl)ethyl]-2-methylimidazo[1,2-a]pyridine-3-carboxamide]",3.0
11,"[2H]C([2H])(Oc1cccn2c(C(=O)N[C@@H](CO)CCCC)c(C)nc12)c1c(F)cccc1F [Example 115, 8-{[(2,6-difluorophenyl)(^2H2)methyl]oxy}-N-[(2R)-1-hydroxyhexan-2-yl]-2-methylimidazo[1,2-a]pyridine-3-carboxamide]",0.01
12,"Cc1nc2c(OCc3c(F)cccc3F)cccn2c1C(=O)NCCC1(O)CCCCC1 [Example 116, 8-[(2,6-difluorobenzyl)oxy]-N-[2-(1-hydroxycyclohexyl)ethyl]-2-methylimidazo[1,2-a]pyridine-3-carboxamide]",0.3
13,"Cc1nc2c(OCc3c(F)cccc3F)cccn2c1C(=O)NCCC1(O)CCCC1 [Example 117, 8-[(2,6-difluorobenzyl)oxy]-N-[2-(1-hydroxycyclopentyl)ethyl]-2-methylimidazo[1,2-a]pyridine-3-carboxamide]",0.03
14,"Cc1nc2c(OCc3c(F)cccc3F)cccn2c1C(=O)N[C@H](C)CO [Example 118, 8-[(2,6-difluorobenzyl)oxy]-N-[(2R)-1-hydroxypropan-2-yl]-2-methylimidazo[1,2-a]-pyridine-3-carboxamide]",0.3
15,"Cc1nc2c(OCc3c(F)cccc3F)cccn2c1C(=O)NC1(CO)CCC1 [Example 125, 8-[(2,6-Difluorobenzyl)oxy]-N-[1-(hydroxymethyl)cyclobutyl]-2-methylimidazo[1,2-a]pyridine-3-carboxamide]",0.3
16,"C#Cc1cc(OCc2c(F)cccc2F)c2nc(C)c(C(=O)N[C@@H](CO)CCCC)n2c1 [Example 126, 8-[(2,6-Difluorobenzyl)oxy]-6-ethynyl-N-[(2R)-hydroxyhexan-2-yl]-2-methylimidazo[1,2-a]-pyridine-3-carboxamide]",0.1
17,"Cc1nc2c(OCc3c(F)cccc3F)cc(Cl)cn2c1C(=O)N[C@@H](CO)CCCO [Example 127, 6-Chloro-8-[(2,6-difluorobenzyl)oxy]-N-[(2R)-1,5-dihydroxypentan-2-yl]-2-methylimidazo[1,2-a]-pyridine-3-carboxamide]",0.3
18,"Cc1nc2c(OCc3c(F)cccc3F)cc(Cl)cn2c1C(=O)N[C@@H](CO)CCO [Example 128, 6-chloro-8-[(2,6-difluorobenzyl)oxy]-N-[(2R)-1,4-dihydroxybutan-2-yl]-2-methylimidazo[1,2-a]pyridine-3-carboxamide]",0.3
19,"Cc1nc2c(OCc3c(F)cccc3F)cccn2c1C(=O)N[C@@H](CO)CCO [Example 129, 8-[(2,6-difluorobenzyl)oxy]-N-[(2R)-1,4-dihydroxybutan-2-yl]-2-methylimidazo[1,2-a]pyridine-3-carboxamide]",3.0
20,"Cc1nc2c(OCc3c(F)cccc3F)cccn2c1C(=O)N[C@@H](CO)CCCO [Example 130, 8-[(2,6-difluorobenzyl)oxy]-N-[(2R)-1,5-dihydroxypentan-2-yl]-2-methylimidazo[1,2-a]pyridine-3-carboxamide]",1.0
21,"CCCC[C@H](CO)NC(=O)c1c(C)nc2c(OCc3c(F)cccc3F)cc(Cl)cn12 [Example 131, 6-chloro-8-[(2,6-difluorobenzyl)oxy]-N-[(2R)-1-hydroxyhexan-2-yl]-2-methylimidazo[1,2-a]pyridine-3-carboxamide]",0.01
22,"CCCC[C@H](CO)NC(=O)c1c(C)nc2c(OCc3c(F)cccc3F)cc(F)cn12 [Example 132, 8-[(2,6-difluorobenzyl)oxy]-6-fluoro-N-[(2R)-1-hydroxyhexan-2-yl]-2-methylimidazo[1,2-a]pyridine-3-carboxamide]",0.03
23,"CCCC[C@H](CO)NC(=O)c1c(C)nc2c(OCc3c(F)cccc3F)cc(C)cn12 [Example 133, 8-[(2,6-difluorobenzyl)oxy]-N-[(2R)-1-hydroxyhexan-2-yl]-2,6-dimethylimidazo[1,2-a]pyridine-3-carboxamide]",0.01
24,"Cc1nc2c(OCc3c(F)cccc3F)cccn2c1C(=O)N[C@@H](CO)CC[C@@H](O)C(F)(F)F [Example 135, 8-[(2,6-difluorobenzyl)oxy]-2-methyl-N-[(2R,5R)-6,6,6-trifluoro-1,5-dihydroxyhexan-2-yl]imidazo[1,2-a]pyridine-3-carboxamide trifluoroacetate (1:1)]",0.1
25,"Cc1nc2c(OCc3c(F)cccc3F)cccn2c1C(=O)NCC(O)COc1ccc(F)cc1 (centres unmarked) [Example 136, 8-[(2,6-difluorobenzyl)oxy]-N-[3-(4-fluorophenoxy)-2-hydroxypropyl]-2-methylimidazo[1,2-a]pyridine-3-carboxamide]",3.0
26,"Cc1nc2c(OCc3c(F)cccc3F)cccn2c1C(=O)NCC(O)COc1ccccc1 (centres unmarked) [Example 137, 8-[(2,6-difluorobenzyl)oxy]-N-(2-hydroxy-3-phenoxypropyl)-2-methylimidazo[1,2-a]-pyridine-3-carboxamide]",3.0
